Measured values reported in patent US20250163119A1, “COMPOUNDS FOR THE TREATMENT OF DIABETES OR OBESITY” (Eli Lilly and Company, priority 2023, published 2025).
Where “and” joins values, the source holds several entries; their conditions need not be identical. Equal entries are not always repeated. Where two headings read alike, the source gives them in different places. *1 amine or outer side, *2 acyl side, *3 side chain or, on linkers, in order; H or OH if unused. Side-chain parts run from the residue outwards. [ ]: non-standard residue; d: D form. The star is where a group is joined. C20 diacid = O=C(O)CCCCCCCCCCCCCCCCCCC(=O)*; γGlu = O=C(O)[C@H](CCC(=O)[*:2])N[*:1]; εLys = N[C@@H](CCCCN[*:1])C(=O)[*:2]; αMeL = CC(C)C[C@](C)(N)C(=O)O; AEEA = NCCOCCOCC(=O)O; Aib = CC(C)(N)C(=O)O

Assay: Pharmacokinetics in Sprague Dawley rats, single subcutaneous or intravenous dose (incl. 10, 30, 100 nmol/kg dose response)
Type: in vivo
Settings: for Tmax: read-out: Tmax
[1] = male Sprague Dawley rats, single intravenous dose 187 nmol/kg, individual animal
[2] = male, Sprague Dawley, rat, plasma, iv, 187 nmol/kg, single intravenous dose 187 nmol/kg, Mean
[3] = male, Sprague Dawley, rat, plasma, sc, 10 nmol/kg, dose response, single subcutaneous dose 10 nmol/kg, individual animal
[4] = male, Sprague Dawley, rat, plasma, sc, 10 nmol/kg, dose response, single subcutaneous dose 10 nmol/kg, mean
[5] = male, Sprague Dawley, rat, plasma, sc, 30 nmol/kg, dose response, single subcutaneous dose 30 nmol/kg, individual animal
[6] = male, Sprague Dawley, rat, plasma, sc, 30 nmol/kg, dose response, single subcutaneous dose 30 nmol/kg, mean
[7] = male, Sprague Dawley, rat, plasma, sc, 100 nmol/kg, dose response, single subcutaneous dose 100 nmol/kg, individual animal
[8] = male, Sprague Dawley, rat, plasma, sc, 100 nmol/kg, dose response, single subcutaneous dose 100 nmol/kg, mean
[9] = male, Sprague Dawley, rat, plasma, sc, 187 nmol/kg, single subcutaneous dose 187 nmol/kg, individual animal
[10] = male, Sprague Dawley, rat, plasma, sc, 187 nmol/kg, single subcutaneous dose 187 nmol/kg, mean
[11] = single subcutaneous dose 187 nmol/kg, male Sprague Dawley rats, individual animal

With “Ac-GSPSIVTS[αMeL]DVPT[Aib][αMeL]LQKILEQERAEKARQQAK([γGlu-AEEA-εLys-C20 diacid])EAAEILAQV-NH2 [SEQ ID NO: 1, Ac-GSPSIVTS αMeL DVPT Aib αMeL LQKILEQERAEKARQQAK(γE-(2-[2-(2-Amino-ethoxy)-ethoxy]-acetyl)-ϵK-CO-(CH2)18-CO2H)EAAEILAQV-NH2]” the “CL” value [1] was 2.04 mL/h/kg and 2.42 mL/h/kg, the “T1/2” value [1] was 47.5 h and 23.2 h and 31.0 h and the clearance [2] was 2.05 mL/h/kg. The half-life [2] was 33.9 h, the clearance (male, Sprague Dawley, rat, plasma, iv, 187 nmol/kg, single intravenous dose 187 nmol/kg, individual animal) was 1.69 mL/h/kg and the half-life [3] was 26 h. The CL/F (male, Sprague Dawley, rat, plasma, sc, 10 nmol/kg, dose response, single subcutaneous dose 10 nmol/kg, individual animal, read-out: CL/F (converted)) was 5.1 mL/h/kg, the Tmax [3] was 24 h and the half-life [4] was 32.9 h. It also gave a CL/F (male, Sprague Dawley, rat, plasma, sc, 10 nmol/kg, dose response, single subcutaneous dose 10 nmol/kg, mean, read-out: CL/F (converted)) of 5.28 mL/h/kg, a Tmax [4] of 24 h and a half-life [5] of 31.5 h. For the same substance, the CL/F (male, Sprague Dawley, rat, plasma, sc, 30 nmol/kg, dose response, single subcutaneous dose 30 nmol/kg, individual animal, read-out: CL/F (converted)) was 4.8 mL/h/kg, the Tmax [5] was 24 h and the half-life [6] was 34.9 h. The CL/F (male, Sprague Dawley, rat, plasma, sc, 30 nmol/kg, dose response, single subcutaneous dose 30 nmol/kg, mean, read-out: CL/F (converted)) was 4.51 mL/h/kg, the Tmax [6] was 32 h and the half-life [7] was 30.8 h. It also gave a CL/F (male, Sprague Dawley, rat, plasma, sc, 100 nmol/kg, dose response, single subcutaneous dose 100 nmol/kg, individual animal, read-out: CL/F (converted)) of 5.46 mL/h/kg, a Tmax [7] of 24 h and a half-life [8] of 27.1 h. It also gave a CL/F (male, Sprague Dawley, rat, plasma, sc, 100 nmol/kg, dose response, single subcutaneous dose 100 nmol/kg, mean, read-out: CL/F (converted)) of 5.08 mL/h/kg, a Tmax [8] of 24 h and a half-life [9] of 37.7 h. It also gave a CL/F (male, Sprague Dawley, rat, plasma, sc, 187 nmol/kg, single subcutaneous dose 187 nmol/kg, individual animal, read-out: CL/F (converted)) of 3.67 mL/h/kg, a Tmax [9] of 24 h and a half-life [10] of 35.7 h. It also gave a CL/F (male, Sprague Dawley, rat, plasma, sc, 187 nmol/kg, single subcutaneous dose 187 nmol/kg, mean, read-out: CL/F (converted)) of 4.07 mL/h/kg, a Tmax [10] of 24 h and an AUC0-inf (rat, plasma, sc, dose response, single subcutaneous dose 10 nmol/kg, male Sprague Dawley rats, mean, read-out: AUC0-inf) of 2.05 µM·h. The Cmax (rat, plasma, sc, dose response, single subcutaneous dose 10 nmol/kg, male Sprague Dawley rats, mean, read-out: Cmax) was 34.2 nM, the AUC0-inf (rat, plasma, sc, dose response, single subcutaneous dose 30 nmol/kg, male Sprague Dawley rats, mean, read-out: AUC0-inf) was 7.01 µM·h and the Cmax (rat, plasma, sc, dose response, single subcutaneous dose 30 nmol/kg, male Sprague Dawley rats, mean, read-out: Cmax) was 105 nM. The AUC0-inf (rat, plasma, sc, dose response, single subcutaneous dose 100 nmol/kg, male Sprague Dawley rats, mean, read-out: AUC0-inf) was 20.2 µM·h, the Cmax (rat, plasma, sc, dose response, single subcutaneous dose 100 nmol/kg, male Sprague Dawley rats, mean, read-out: Cmax) was 334 nM and the AUC0-inf (rat, plasma, sc, single subcutaneous dose 187 nmol/kg, male Sprague Dawley rats, mean, read-out: AUC0-inf) was 49 µM·h. For the same substance, the Cmax (rat, plasma, sc, single subcutaneous dose 187 nmol/kg, male Sprague Dawley rats, mean, read-out: Cmax) was 657 nM, the AUC0-inf (rat, plasma, male Sprague Dawley rats, single intravenous dose 187 nmol/kg, Mean, read-out: AUC0-inf) was 93.4 µM·h and the C0 (rat, plasma, male Sprague Dawley rats, single intravenous dose 187 nmol/kg, Mean, read-out: C0) was 5110 nM. The AUC0-inf [11] was 53.9 µM·h and 41.2 µM·h and 51.8 µM·h, the CL/F [11] was 4.77 mL/h/kg and 3.77 mL/h/kg and the Cmax [11] was 804 nM and 511 nM and 657 nM. The T1/2 [11] was 38.2 h and 31.2 h.
